Measurements: ChEMBL document CHEMBL1146439, “Novel mono-tetrahydrofuran ring acetogenins, from the bark of Annona squamosa, showing cytotoxic selectivities for the human pancreatic carcinoma cell line, PACA-2” (J Nat Prod, 1997)
≈ marks a conversion by molar mass, not a printed value.

What was measured:
[1] = Toxicity against brine shrimp; assay type: organism-based; details: artemia, in vivo
[2] = test system: A549; assay: Cytotoxicity against human A549 cells after 7 days by MTT assay; assay type: functional; details: A549, 168 h, read-out: ED50 (the source's name)
[3] = test system: MCF7; assay: Cytotoxicity against human MCF7 cells after 7 days by MTT assay; assay type: functional; details: MCF7, 168 h, read-out: ED50 (the source's name)
[4] = test system: HT-29; assay: Cytotoxicity against human HT-29 cells after 7 days by MTT assay; assay type: functional; details: HT-29, 168 h, read-out: ED50 (the source's name)
[5] = test system: A498; assay: Cytotoxicity against human A498 cells after 7 days by MTT assay; assay type: functional; details: A498, 168 h, read-out: ED50 (the source's name)
[6] = test system: PC-3; assay: Cytotoxicity against human PC3 cells after 7 days by MTT assay; assay type: functional; details: PC-3, 168 h, read-out: ED50 (the source's name)
[7] = test system: MIA PaCa-2; assay: Cytotoxicity against human MIAPaCa2 cells after 7 days by MTT assay; assay type: functional; details: for EC50: Homo sapiens, MIA PaCa-2, 168 h, read-out: ED50 (the source's name)

Question: Which LC50 [1] does the source give for `CCCCCCCCC/C=C\CC[C@@H](O)[C@H]1CC[C@H]([C@H](O)CCCCCC(=O)CCCC[C@@H]2CC(CC(C)=O)C(=O)O2)O1` (mixture of isomers) here?
Answer: Its LC50 is 0.44 µg/mL.

Question: What about the EC50 [2] of the same molecule?
Answer: Its EC50 is greater than 1 µg/mL.

Question: And the EC50 [3]?
Answer: The EC50 was greater than 1 µg/mL.

Question: And the EC50 [4]?
Answer: The EC50 was greater than 1 µg/mL.

Question: And the EC50 [5]?
Answer: The EC50 was greater than 1 µg/mL.

Question: What about the EC50 [6] of the same molecule?
Answer: Its EC50 is 0.032 µg/mL.

Question: And the EC50 [7]?
Answer: Its EC50 is 0.0022 µg/mL.

Question: Which LC50 [1] does the source give for `CCCCCCCCCCCC[C@@H](O)[C@H]1CC[C@H]([C@H](O)CCCCCC(=O)CCCC[C@@H](O)CC2=C[C@H](C)OC2=O)O1` here?
Answer: The LC50 was 0.41 µg/mL (≈ 0.689 µM).

Question: What about the EC50 [2] of the same molecule?
Answer: Its EC50 is 0.27 µg/mL (≈ 0.454 µM).

Question: And the EC50 [3]?
Answer: Its EC50 is greater than 1 µg/mL.

Question: And the EC50 [4]?
Answer: The EC50 was greater than 1 µg/mL.

Question: What about the EC50 [5] of the same molecule?
Answer: Its EC50 is greater than 1 µg/mL.

Question: And the EC50 [6]?
Answer: The EC50 was 0.0096 µg/mL (≈ 0.0161 µM).

Question: And the ED50 [7]?
Answer: Its ED50 is 2.4 ×10⁻⁴ ug/ml.

Question: Which LC50 [1] does the source give for `CCCCCCCCCCCC[C@H](O)[C@@H]1CC[C@H]([C@H](O)CCCCCC(=O)CCCC[C@@H](O)CC2=C[C@H](C)OC2=O)O1` [MOSIN C] here?
Answer: The LC50 was 0.15 µg/mL (≈ 0.252 µM).

Question: What about the EC50 [2] of the same molecule?
Answer: The EC50 was 0.6 µg/mL (≈ 1.01 µM).

Question: And the EC50 [3]?
Answer: The EC50 was greater than 1 µg/mL.

Question: And the EC50 [4]?
Answer: Its EC50 is greater than 1 µg/mL.

Question: What about the EC50 [5] of the same molecule?
Answer: Its EC50 is greater than 1 µg/mL.

Question: What about the EC50 [6] of the same molecule?
Answer: The EC50 was greater than 1 µg/mL.

Question: And the ED50 [7]?
Answer: Its ED50 is 1.2 ×10⁻⁴ ug/ml.

Question: For `COc1cccc2c1C(=O)c1c(O)c3c(c(O)c1C2=O)C[C@@](O)(C(=O)CO)C[C@@H]3O[C@H]1C[C@H](N)[C@H](O)[C@H](C)O1` [DOXORUBICIN], which LC50 [1] is on record?
Answer: The LC50 was 0.26 µg/mL (≈ 0.478 µM).

Question: What about the EC50 [2] of the same molecule?
Answer: The EC50 was 0.0053 µg/mL (≈ 0.00975 µM).

Question: What about the EC50 [3] of the same molecule?
Answer: Its EC50 is 0.2 µg/mL (≈ 0.368 µM).

Question: And the EC50 [4]?
Answer: Its EC50 is 0.02 µg/mL (≈ 0.0368 µM).

Question: And the EC50 [5]?
Answer: Its EC50 is 0.01 µg/mL (≈ 0.0184 µM).

Question: What about the EC50 [6] of the same molecule?
Answer: The EC50 was 0.032 µg/mL (≈ 0.0589 µM).

Question: And the EC50 [7]?
Answer: Its EC50 is 0.018 µg/mL (≈ 0.0331 µM).

Question: What does the source list for `CCCCCCCCCCCC[C@H](O)[C@H]1CC[C@H]([C@H](O)CCCCCC(=O)CCCC[C@@H](O)CC2=C[C@H](C)OC2=O)O1` [MOSIN B]?
Answer: LC50 [1]: 0.29 µg/mL (≈ 0.487 µM); EC50 [2]: 0.94 µg/mL (≈ 1.58 µM); EC50 [3]: > 1 µg/mL; EC50 [4]: > 1 µg/mL; EC50 [5]: > 1 µg/mL; EC50 [6]: 0.35 µg/mL (≈ 0.588 µM); ED50 [7]: 2.5 ×10⁻⁴ ug/ml
